Data published in the supplement of paper PMC11061612.

Experiments:
Test in all cases: combination Emax (second highest fraction inhibited in the dose matrix, 72 h); higher = more inhibition; extreme values may be limits of the assay
[1] = system: 23132-87 (Gastric Carcinoma)
Procedure, shortened: (§1)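 Bliss excess equals the observed combination effect minus the expected value EA + EB − EA·EB, where EA and EB are the effects of each agent alone. Combination Emax is the second-highest inhibition within the matrix. Inhibition was scaled from CellTiter-Glo 2.0 luminescence, with 0 set by vehicle wells and 1 by blank wells, after 72 hours of two-drug dosing of cells plated in 1536-well plates.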

A2058 (Melanoma) = system: A2058 (Melanoma)
Procedure, shortened: as §1

[2] = system: CAL-62 (Thyroid Gland Carcinoma)
Procedure, shortened: as §1

[3] = system: COLO-680N (Esophageal Squamous Cell Carcinoma)
Procedure, shortened: as §1

[4] = system: FADU (Head and Neck Carcinoma)
Procedure, shortened: as §1

GB-1 (Glioblastoma) = system: GB-1 (Glioblastoma)
Procedure, shortened: as §1

[5] = system: HSC-39 (Gastric Carcinoma)
Procedure, shortened: as §1

[6] = system: KE-37 (T-Lymphoblastic Leukemia)
Procedure, shortened: as §1

[7] = system: L-1236 (Hodgkin's Lymphoma)
Procedure, shortened: as §1

LN-229 (Glioblastoma) = system: LN-229 (Glioblastoma)
Procedure, shortened: as §1

[8] = system: MFE-280 (Endometrial Carcinoma)
Procedure, shortened: as §1

[9] = system: NCI-H23 (Lung Adenocarcinoma)
Procedure, shortened: as §1

[10] = system: NCI-H2342 (Lung Adenocarcinoma)
Procedure, shortened: as §1

[11] = system: PC-3_[JPC-3] (Lung Adenocarcinoma)
Procedure, shortened: as §1

[12] = system: REH (B-Lymphoblastic Leukemia)
Procedure, shortened: as §1

[13] = system: RERF-GC-1B (Gastric Carcinoma)
Procedure, shortened: as §1

SF268 (Low Grade Glioma) = system: SF268 (Low Grade Glioma)
Procedure, shortened: as §1

[14] = system: SU-DHL-10 (B-Cell Non-Hodgkin's Lymphoma)
Procedure, shortened: as §1

[15] = system: TE-8 (Esophageal Squamous Cell Carcinoma)
Procedure, shortened: as §1

WM278 (Melanoma) = system: WM278 (Melanoma)
Procedure, shortened: as §1

Row | Compound | combination Emax [1] | combination Emax (A2058 (Melanoma)) | combination Emax [2] | combination Emax [3] | combination Emax [4] | combination Emax (GB-1 (Glioblastoma)) | combination Emax [5] | combination Emax [6] | combination Emax [7] | combination Emax (LN-229 (Glioblastoma)) | combination Emax [8] | combination Emax [9] | combination Emax [10] | combination Emax [11] | combination Emax [12] | combination Emax [13] | combination Emax (SF268 (Low Grade Glioma)) | combination Emax [14] | combination Emax [15] | combination Emax (WM278 (Melanoma))
1 | Cc1cc2ncnn2cc1Nc1ncc2c(n1)n(C1CCOCC1)c(=O)n2C [AZD7648] + O=C(c1cc(Cc2n[nH]c(=O)c3ccccc23)ccc1F)N1CCN(C(=O)C2CC2)CC1 [Olaparib] (first compound max 10 µM, 7x7, partner max 10 µM) | 0.239 | 0.0679 | 0.377 | 0.101 | 0.237 | 0.23 | 0.267 | 0.585 | 0.238 | 0.0989 | 0.434 | 0.213 | 0.12 | 0.19 | 0.187 | 0.228 | 0.117 | 0.16 | 0.184 | 0.0954
2 | NC1(C(=O)N[C@@H](CCO)c2ccc(Cl)cc2)CCN(c2ncnc3[nH]ccc23)CC1 [Capivasertib] + CC(=O)c1c(C)c2cnc(Nc3ccc(N4CCNCC4)cn3)nc2n(C2CCCC2)c1=O [Palbociclib] (first compound max 10 µM, 7x7, partner max 10 µM) | 0.428 | 0.638 | 0.422 | 0.197 | 0.527 | 0.476 | 0.749 | 0.76 | 0.861 | 0.376 | 0.555 | 0.512 | 0.327 | 0.398 | 0.609 | 0.458 | 0.452 | 1 | 0.48 | 0.402
3 | NC1(C(=O)N[C@@H](CCO)c2ccc(Cl)cc2)CCN(c2ncnc3[nH]ccc23)CC1 [Capivasertib] + CC(C)n1c(=O)n(C)c2cnc3cc(F)c(-c4ccc(OCCCN5CCCCC5)nc4)cc3c21 [AZD1390] (first compound max 10 µM, 7x7, partner max 0.3 µM) | 0.165 | 0.458 | 0.178 | 0.197 | 0.221 | 0.275 | 0.432 | 0.72 | 0.759 | 0.104 | 0.583 | 0.297 | 0.284 | 0.176 | 0.461 | 0.433 | 0.272 | 1 | 0.502 | 0.316
4 | NC1(C(=O)N[C@@H](CCO)c2ccc(Cl)cc2)CCN(c2ncnc3[nH]ccc23)CC1 [Capivasertib] + CCN(CCO)CCCOc1ccc2c(Nc3cc(CC(=O)Nc4cccc(F)c4)[nH]n3)ncnc2c1 [AZD2811] (first compound max 10 µM, 7x7, partner max 1 µM) | 0.224 | 0.798 | 0.308 | 0.195 | 0.36 | 0.342 | 0.948 | 1 | 0.792 | 0.211 | 0.661 | 0.387 | 0.482 | 0.344 | 0.848 | 0.542 | 0.416 | 1 | 0.6 | 0.431
5 | NC1(C(=O)N[C@@H](CCO)c2ccc(Cl)cc2)CCN(c2ncnc3[nH]ccc23)CC1 [Capivasertib] + COc1nnc2ccc(N3CCC(c4ccc(OCCN5CCN(C)C(=O)[C@H]5C)cc4)CC3)nn12 [AZD5153] (first compound max 10 µM, 7x7, partner max 1 µM) | 0.659 | 0.882 | 0.751 | 0.276 | 0.65 | 0.48 | 0.916 | 0.905 | 1 | 0.344 | 0.608 | 0.773 | 0.46 | 0.349 | 0.987 | 0.617 | 0.488 | 1 | 0.582 | 0.734
6 | NC1(C(=O)N[C@@H](CCO)c2ccc(Cl)cc2)CCN(c2ncnc3[nH]ccc23)CC1 [Capivasertib] + C[C@@H]1COCCN1C2=NC(=NC(=C2)C3(CC3)[S@](=N)(=O)C)C4=C5C=CNC5=NC=C4 [AZD6738] (first compound max 10 µM, 7x7, partner max 10 µM) | 0.616 | 0.805 | 0.784 | 0.373 | 0.594 | 0.563 | 1 | 0.992 | 0.818 | 0.597 | 0.636 | 0.87 | 0.585 | 0.441 | 0.933 | 0.558 | 0.644 | 1 | 0.706 | 0.579
7 | NC1(C(=O)N[C@@H](CCO)c2ccc(Cl)cc2)CCN(c2ncnc3[nH]ccc23)CC1 [Capivasertib] + Cn1cnc2c(F)c(Nc3ccc(Br)cc3Cl)c(C(=O)NOCCO)cc21 [Selumetinib] (first compound max 10 µM, 7x7, partner max 10 µM) | 0.396 | 0.895 | 0.557 | 0.392 | 0.531 | 0.588 | 0.852 | 0.707 | 0.844 | 0.484 | 0.68 | 0.454 | 0.381 | 0.382 | 0.492 | 0.6 | 0.315 | 1 | 0.624 | 0.722
